Results taken from US20240000950A1, “THERAPEUTIC CURE-PRO COMPOUNDS FOR TARGETED DEGRADATION OF BET DOMAIN PROTEINS, AND METHODS OF MAKING AND USING THEM” (CORNELL UNIVERSITY, priority 2020, published 2024).
Entries after “also recorded” stand apart in the source; their conditions may differ.

Tests used:
[1] = molecular target: BRD4 (Homo sapiens, UniProt O60885); assay: Summary of E3 ligase directed degradation of BRD4, estimated from Western Blot or WES (Tables 1-6); type: cell-based; set-up: endogenous in cells; host or cells: HeLa, MCF7 or HCT116; settings: for Degradation of BRD4, combination with CRBN ligand [drawing 422]: CRBN ligand drawn as drawing 422 (by the text apparently 8066); for Degradation of BRD4, combination with CRBN ligand [drawing 397]: aromatic 1,2-diol- or hindered cis-1,2-diol-containing CRBN ligand drawn as drawing 397 (by the text apparently 8046); for Degradation of BRD4, combination with CRBN ligand [drawing 457]: aryl-boronic acid-containing CRBN ligand drawn as drawing 457 (by the text apparently 8048)
Procedure: HeLa, MCF7, or HCT116 cells (2.5-3×10^6) were treated for 24 hours with the indicated compounds solubilized in DMSO. The cells were washed in ice-cold PBS and were then lysed in RIPA lysis buffer (150 mM NaCl, 5 mM EDTA, 1% NP-40, 0.5% sodium deoxycholate, 0.1% SDS, 50 mM Tris, pH 8.0) with Roche protease inhibitor complete cocktail and phosphatase inhibitors (10 mM sodium fluoride, 10 mM sodium pyrophosphate, 1 mM sodium orthovanadate and 20 mM β-glycerophosphate). The total protein concentrations were determined by Bradford Protein Assay and 10-20 μg of protein was loaded onto 4-15% Tris-Glycine gradient gels (Biorad). After standard gel electrophoresis, the separated proteins were transferred to PVDF membrane by wet transfer. The immunoblots were then blocked for 1 hour in 5% skim milk in TBST or 5% BSA in TBST, according to manufacturer's instructions, before an overnight incubation at 4° C. with indicated antibodies and membranes. Membranes were then incubated with the appropriate horseradish peroxidase-conjugated secondary antibodies (1:5,000 dilution) for 1 h at room temperature and the bands were visualized using the Clarity Max Western ECL Substrate (Biorad) and the ChemiDoc Imaging System (Biorad). Signal was detected with ECL Western Blotting Substrate (Pierce) and X-ray film processed with a Konica SRX-101 X-ray film processor or captured by Bio-Rad's Chemidoc Imaging system.
WES Simple analysis was performed on WES system (ProteinSimple-Biotechne) according to the manufacturer's instructions. Total protein concentrations of cell lysates were determined by the Pierce BCA kit (Thermo Fisher). 3 μL of 0.3 μg/uL of the protein lysate was loaded onto a 12- to 230-kDa WES assay plate (ProteinSimple) where 300 nL sample was withdrawn through a capillary, subjected to electrophoretic separation of proteins by size, and followed by the simultaneous, HRP-based detection of proteins using the Anti-Rabbit Detection Module (Proteinsimple: #DM-001). The electropherograms were checked then the automatic peak detection was manually corrected if it was required.
A black check mark indicates efficacy of 30% to 70% or higher protein degradation.

[2] = test system: MV-4-11 cells; assay: CellTiter-Glo cell viability, MV-4-11 cells; type: cell-based
Procedure: All cell lines were purchased from ATCC or DSMZ and grown at 37° C. with 5% C02. Human HeLa cells were cultured in complete growth medium (Dulbecco's modified Eagle's medium (DMEM) supplemented with 10% FBS); MCF7 cells were cultured in complete growth medium (Dulbecco's modified Eagle's medium (DMEM) supplemented with 10% FBS and 0.01 mg/ml human recombinant insulin (Sigma Aldrich); Namalwa and MOLM-13 cells were cultured in complete growth medium (RPMI 1640 medium supplemented with 10% FBS); MV-4-11 were cultured in complete growth medium (Iscove's Modified Dulbecco's medium, supplemented with 10% FBS); HCT116 cells were cultured in complete growth medium (McCoy's 5a Medium supplemented with 10% FBS). For cellular degradation of BRD4 studies, cells were seeded in a 12-well plate at 70-80% confluency, allowed to attach overnight, and incubated with the indicated compounds for the indicated time. When indicated, a 15-minute pretreatment with 10 μM pomalidomide, 10 μM VHL298, 10 μM Nutlin3a, 1 μM MG-132 or 1 μM Carfilzomib was performed before the addition of CURE-PROs. For washout studies, after CURE-PRO treatment, media was aspirated and incubated with complete medium for the indicated time before lysis.
CellTiter-Glo® 2.0 Cell Viability Assay (Promega) was carried out following the manufacturer's recommendations. Cells were seeded at a density of 1000 cells/well in a white 96 well plates (Corning, #3917) in a total volume of 100 μl with respective monomers, combinations of BRD ligands together with E3 ligase ligands or vehicle control treatment. After a 72 h incubation, 100 ul of the CellTiter-Glo® substrate was added per well and luminescence was read on a Spectramax M5 (Molecular Devices). Dose-response curves were generated using Graphpad Prism software.
MV-4-11 cells (5×104) were treated for 24 hours with the sample compounds solubilized in DMSO. The compounds were added at 1 nM-100 μM each. Cellular viability was determined using the CellTiter-Glo® Luminescent Cell Viability Assay (Promega) described above. FIGS. 19-22 depict the CURE-PRO-mediated loss of cellular viability for BRD monomers (JQ1 derivatives comprising of catechol linkers), and CRBN ligand, 8049 (pomalidomide derivatives comprising boronic acid linkers) combined in a 1:1 ratio.
MV-4-11 cells (1×104) were treated for 72 hours with the compounds solubilized in DMSO. Compounds were added at 10 nM-100 μM each. Cellular viability was determined using the CellTiter-Glo® Luminescent Cell Viability Assay (Promega) described above. FIGS. 47-54 depict the CURE-PRO-mediated loss of cellular viability for BRD monomers (JQ1 derivatives comprising of boronic acid linkers), and CRBN ligands, 8046, 8047, and 8066 (pomalidomide derivatives comprising diol linkers) combined in a 1:1 ratio.

[3] = 72 h, 10 nM-100 μM, cotreated 1:1 with each of CRBN ligands 8066, 8046 and 8047, compared to monomers alone

## CCNC(=O)C[C@@H]1N=C(c2ccc(Cl)cc2)c2cc(OCCCCC(=O)Nc3cccc(B(O)O)c3)ccc2-n2c(C)nnc21 [BRD-E20, (3-(5-(((4S)-6-(4-chlorophenyl)-4-(2-(ethylamino)-2-oxoethyl)-1-methyl-4H-benzo[f][1,2,4]triazolo[4,3-a][1,4]diazepin-8-yl)oxy)pentanamido)phenyl)boronic acid]
[1]; Table 1
  Degradation of BRD4, combination with CRBN ligand [drawing 422]: ✓ (A black check mark indicates efficacy of 30% to 70% or higher protein degradation)
  Degradation of BRD4, combination with CRBN ligand [drawing 397]: ✓ (A black check mark indicates efficacy of 30% to 70% or higher protein degradation)
[1]; Table 2, aromatic 1,2-diol-containing MDM2 ligand drawn as drawing 430 (by the text apparently 8313)
  Degradation of BRD4, combination with MDM2 ligand [drawing 430]: ✓ (A black check mark indicates efficacy of 30% to 70% or higher protein degradation)
[1]; Table 2, aromatic 1,2-diol-containing MDM2 ligand drawn as drawing 431 (by the text apparently 8314)
  Degradation of BRD4, combination with MDM2 ligand [drawing 431]: ✓ (A black check mark indicates efficacy of 30% to 70% or higher protein degradation)
[1]; Table 3, aromatic 1,2-diol-containing VHL ligand drawn as drawing 442 (by the text apparently 8305)
  Degradation of BRD4, combination with VHL ligand [drawing 442]: ✓ (A black check mark indicates efficacy of 30% to 70% or higher protein degradation)
[2]; [3]
  toxicity / loss of cellular viability (CellTiter-Glo): reduced viability; also recorded: increased toxicity

## COc1ccc2c(c1)C(c1ccc(Cl)cc1)=N[C@@H](CC(=O)NCCNC(=O)/C=C/c1ccc(B(O)O)cc1)c1nnc(C)n1-2 [BRD-E29, (4-((E)-3-((2-(2-((4S)-6-(4-chlorophenyl)-8-methoxy-1-methyl-4H-benzo[f][1,2,4]triazolo[4,3-a][1,4]diazepin-4-yl)acetamido)ethyl)amino)-3-oxoprop-1-en-1-yl)phenyl)boronic acid]
[1]; Table 1, CRBN ligand drawn as drawing 421 (by the text apparently 8047)
  Degradation of BRD4, combination with CRBN ligand [drawing 421]: ✓ (A black check mark indicates efficacy of 30% to 70% or higher protein degradation)
[1]; Table 1
  Degradation of BRD4, combination with CRBN ligand [drawing 422]: ✓ (A black check mark indicates efficacy of 30% to 70% or higher protein degradation)
  Degradation of BRD4, combination with CRBN ligand [drawing 397]: ✓ (A black check mark indicates efficacy of 30% to 70% or higher protein degradation)
[2]; [3]
  toxicity / loss of cellular viability (CellTiter-Glo): reduced viability; also recorded: increased toxicity

## COc1ccc2c(c1)C(c1ccc(Cl)cc1)=N[C@@H](CC(=O)NCCOCCOCCNC(=O)c1cccc(B(O)O)c1)c1nnc(C)n1-2 [BRD-E46]
[1]; Table 1
  Degradation of BRD4, combination with CRBN ligand [drawing 422]: ✓ (A black check mark indicates efficacy of 30% to 70% or higher protein degradation)
  Degradation of BRD4, combination with CRBN ligand [drawing 397]: ✓ (A black check mark indicates efficacy of 30% to 70% or higher protein degradation)
[2]; [3]
  toxicity / loss of cellular viability (CellTiter-Glo): reduced viability; also recorded: increased toxicity

## COc1ccc2c(c1)C(c1ccc(Cl)cc1)=N[C@@H](CC(=O)Nc1cccc(B(O)O)c1)c1nnc(C)n1-2 [BRD-E73, (3-(2-((4S)-6-(4-chlorophenyl)-8-methoxy-1-methyl-4H-benzo[f][1,2,4]triazolo[4,3-a][1,4]diazepin-4-yl)acetamido)phenyl)boronic acid]
[2]; [3]
  toxicity / loss of cellular viability (CellTiter-Glo): reduced viability; also recorded: increased toxicity

## COc1ccc2c(c1)C(c1ccc(Cl)cc1)=N[C@@H](CC(=O)NCCCCCNC(=O)c1cccc(O)c1O)c1nnc(C)n1-2 [BRD-N8, N-(5-(2-((4S)-6-(4-chlorophenyl)-8-methoxy-1-methyl-4H-benzo[f][1,2,4]triazolo[4,3-a][1,4]diazepin-4-yl)acetamido)pentyl)-2,3-dihydroxybenzamide]
[2]; 1 nM-100 μM, cotreated 1:1 with CRBN ligand 8049
  toxicity / loss of cellular viability (CellTiter-Glo): a concentration-dependent loss in cellular viability was observed; also recorded: increased toxicity

## COc1ccc2c(c1)C(c1ccc(Cl)cc1)=N[C@@H](CC(=O)NCCOCCOCCOCCNC(=O)c1ccc(O)c(O)c1)c1nnc(C)n1-2 [BRD-N44]
[1]; Table 4
  Degradation of BRD4, combination with CRBN ligand [drawing 457]: ✓ (A black check mark indicates efficacy of 30% to 70% or higher protein degradation)

## CCNC(=O)C[C@@H]1N=C(c2ccc(Cl)cc2)c2cc(-c3ccc4cc(O)c(O)cc4c3)ccc2-n2c(C)nnc21 [BRD-N67]
[1]; Table 4
  Degradation of BRD4, combination with CRBN ligand [drawing 457]: ✓ (A black check mark indicates efficacy of 30% to 70% or higher protein degradation)
[1]; Table 4, aryl-boronic acid-containing CRBN ligand drawn as drawing 458 (by the text apparently 8049)
  Degradation of BRD4, combination with CRBN ligand [drawing 458]: ✓ (A black check mark indicates efficacy of 30% to 70% or higher protein degradation)

## COc1ccc2c(c1)C(c1ccc(Cl)cc1)=N[C@@H](CC(=O)Nc1ccc(O)c(O)c1)c1nnc(C)n1-2 [BRD-N68]
[1]; Table 4
  Degradation of BRD4, combination with CRBN ligand [drawing 457]: ✓ (A black check mark indicates efficacy of 30% to 70% or higher protein degradation)

## COc1ccc2c(c1)C(c1ccc(Cl)cc1)=N[C@@H](CC(=O)NCCOCCOCCOCCOCCNC(=O)c1ccc(O)c(O)c1)c1nnc(C)n1-2 [BRD-N69]
[1]; Table 4
  Degradation of BRD4, combination with CRBN ligand [drawing 457]: ✓ (A black check mark indicates efficacy of 30% to 70% or higher protein degradation)

## CCNC(=O)C[C@@H]1N=C(c2ccc(Cl)cc2)c2cc(OCCOCCOCCOCCOCCOCCNC(=O)c3ccc(O)c(O)c3)ccc2-n2c(C)nnc21 [BRD-N70, N-(17-(((4S)-6-(4-chlorophenyl)-4-(2-(ethylamino)-2-oxoethyl)-1-methyl-4H-benzo[f][1,2,4]triazolo[4,3-a][1,4]diazepin-8-yl)oxy)-3,6,9,12,15-pentaoxaheptadecyl)-3,4-dihydroxybenzamide]
[1]; Table 4
  Degradation of BRD4, combination with CRBN ligand [drawing 457]: ✓ (A black check mark indicates efficacy of 30% to 70% or higher protein degradation)

## CCNC(=O)C[C@@H]1N=C(c2ccc(Cl)cc2)c2cc(OCCOCCOCCOCCOCCOCCNC(=O)c3cccc(O)c3O)ccc2-n2c(C)nnc21 [BRD-N71, N-(17-(((4S)-6-(4-chlorophenyl)-4-(2-(ethylamino)-2-oxoethyl)-1-methyl-4H-benzo[f][1,2,4]triazolo[4,3-a][1,4]diazepin-8-yl)oxy)-3,6,9,12,15-pentaoxaheptadecyl)-2,3-dihydroxybenzamide]
[1]; Table 4
  Degradation of BRD4, combination with CRBN ligand [drawing 457]: ✓ (A black check mark indicates efficacy of 30% to 70% or higher protein degradation)
[1]; Table 5, aryl-boronic acid-containing MDM2 ligand drawn as drawing 464 (apparently 8312)
  Degradation of BRD4, combination with MDM2 ligand [drawing 464]: ✓ (A black check mark indicates efficacy of 30% to 70% or higher protein degradation)

## O=C1CCC(N2C(=O)c3cccc(CNC(=O)c4cccc(B(O)O)c4)c3C2=O)C(=O)N1 (stereo not drawn) [compound 8049]
[2]; 1 nM-100 μM, monomer alone
  loss of cellular viability (CellTiter-Glo): little loss of viability was observed
